Results: patent US20240009105A1, “TETRAPEPTIDE AND COMPOSITIONS COMPRISING TETRAPEPTIDES” (THE BOOTS COMPANY PLC, priority 2020, published 2024)
Marks after values point to notes of the source that are not given here.

Tested on: Fibrillin 1
Assay: Fibrillin 1 expression in primary human dermal fibroblasts by immunofluorescence
Assay type: cell-based
Conditions: HDF cells, 10 ppm peptide, cultured 5 days, immunofluorescence fibre density
Protocol: The synergistic activity of the tetrapeptides of the present invention were assessed to determine the expression of dermal extracellular protein Fibrillin 1 using immunofluorescence.
Primary Human dermal fibroblast (HDFs) cells were purchased from Promo Cell and came from a donor. Cells were grown in wells of 96-well black walled, clear bottomed, plates (as purchased from Pierce, Thermo Fisher). Cells were cultured in Human Dermal Fibroblast media (PromoCell) supplemented with Basic Fibroblast Growth Factor (recombinant human), 1 ng/ml and Insulin 5 μg/mL Cells were cultured for 5 days in the presence of the tetrapeptides combination of the present invention, changing media and peptides every 48 hours, followed by immunofluorescence assessment. At the time of treatment cells were at passage 3-4. After 5 days the media was discarded, and cells fixed with methanol. […]
The antibody binding to Fibrillin 1 fibres was visualised using a Nikon Eclipse 100 microscope fluorescence setting using an excitation lens for fluorescein isothiocyanate (FITC). […] Image-J software was used to quantify the Fibrillin 1 fibre abundance and coverage in each image using a threshold of 235 measuring the fibre density.
Results are expressed as an average percentage increase in fibrillin abundance compared to untreated control.

Row | Substance | Fibrillin 1 (average percentage increase in fibrillin abundance compared to untreated control)
1 | Pal-GPKG-OH | +131%^a
2 | Pal-LSVD-OH | +185%^a
